Laboratory results taken from patent publication US20200247800A1, “SUBSTITUTED BICYCLIC HETEROCYCLIC COMPOUNDS AS NADPH OXIDASE INHIBITORS” (Glenmark Pharmaceuticals S.A., priority 2017, published 2020).

Biological target: T1, human NOX4 (Homo sapiens, UniProt Q9NPH5)
T1 construct: expressed in transfected cells; membrane fraction used
T1 sequence (Q9NPH5 1-578): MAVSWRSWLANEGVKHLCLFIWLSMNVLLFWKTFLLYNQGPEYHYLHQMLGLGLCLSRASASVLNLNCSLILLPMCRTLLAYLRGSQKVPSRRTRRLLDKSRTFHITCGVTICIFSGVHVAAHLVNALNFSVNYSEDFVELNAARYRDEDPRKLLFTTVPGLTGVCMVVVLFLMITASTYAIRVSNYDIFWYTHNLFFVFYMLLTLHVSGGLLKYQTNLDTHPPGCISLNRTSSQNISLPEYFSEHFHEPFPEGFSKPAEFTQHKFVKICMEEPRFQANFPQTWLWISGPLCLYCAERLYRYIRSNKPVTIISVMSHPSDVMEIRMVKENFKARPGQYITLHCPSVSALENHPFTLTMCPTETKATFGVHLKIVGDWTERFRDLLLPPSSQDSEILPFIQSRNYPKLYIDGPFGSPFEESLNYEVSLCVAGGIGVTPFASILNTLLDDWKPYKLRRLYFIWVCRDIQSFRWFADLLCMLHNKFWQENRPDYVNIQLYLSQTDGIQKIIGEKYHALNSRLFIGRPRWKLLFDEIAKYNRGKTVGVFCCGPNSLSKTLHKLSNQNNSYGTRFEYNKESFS
T1 sequence (P13498 1-195 partner): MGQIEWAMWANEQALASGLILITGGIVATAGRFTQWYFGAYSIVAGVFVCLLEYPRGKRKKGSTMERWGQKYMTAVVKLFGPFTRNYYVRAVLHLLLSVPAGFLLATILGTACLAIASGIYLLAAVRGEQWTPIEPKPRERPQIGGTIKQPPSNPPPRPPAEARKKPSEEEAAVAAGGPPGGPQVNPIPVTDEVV
Assay: Cell free membrane based in vitro NOX4 assay: H2O2 production by membranes expressing human NOX4, measured with Amplex Red
Format: biochemical
Settings: for inhibition at 1 µM: 1.0 μM compound, read-out: Percentage inhibition at 1.0 μM; for inhibition at 10 µM: 10.0 μM compound, read-out: Percentage inhibition at 10.0 μM; for IC50: class symbols
Outline: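 Membranes from HEK cells stably overexpressing human NOX4 were preincubated 20 min with inhibitor in pH 7.4 HEPES buffer containing HRP and Amplex Red, then NADPH was added. H2O2 was followed for 10 min by fluorescence (ex 544/em 590 nm). IC50 from nonlinear regression of % maximal uninhibited response.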

Row | Compound | inhibition at 1 µM [%] | inhibition at 10 µM [%] | IC50 [nM]
1 | Cc1nn(C2CC2)c2[nH]c(-c3c(F)cccc3Cl)c(O)c(=O)c12 [Example 124, 6-(2-Chloro-6-fluorophenyl)-1-cyclopropyl-5-hydroxy-3-methyl-1,7-dihydro-4H-pyrazolo[3,4-b]pyridin-4-one] | 69.3 | 81.9 | > 150
2 | Cc1nn(C2CC2)c2[nH]c(-c3ccccc3Cl)c(O)c(=O)c12 [Example 125, 6-(2-Chlorophenyl)-1-cyclopropyl-5-hydroxy-3-methyl-1,7-dihydro-4H-pyrazolo[3,4-b]pyridin-4-one] | 58.4 | 66.8 | –
3 | Cc1nn(C2CCOCC2)c2[nH]c(-c3c(F)cccc3F)c(O)c(=O)c12 [Example 128, 6-(2,6-Difluorophenyl)-5-hydroxy-3-methyl-1-(tetrahydro-2H-pyran-4-yl)-1,7-dihydro-4H-pyrazolo[3,4-b]pyridin-4-one] | 88.1 | 92.1 | 50 to 100
4 | CCn1nc(C)c2c(=O)c(O)c(-c3cc(CNC(=O)C(C)(C)C)ccc3Cl)[nH]c21 [Example 129, N-(4-Chloro-3-(1-ethyl-5-hydroxy-3-methyl-4-oxo-4,7-dihydro-1H-pyrazolo[3,4-b]pyridin-6-yl)benzyl)pivalamide] | 85.1 | 74.4 | 50 to 100
5 | Cc1nn(C2CCC2)c2[nH]c(-c3c(F)cccc3F)c(O)c(=O)c12 [Example 131, 1-Cyclobutyl-6-(2,6-difluorophenyl)-5-hydroxy-3-methyl-1H-pyrazolo[3,4-b]pyridin-4(7H)-one] | 92.4 | 90.2 | < 50

The next lines start with the values.

Row | inhibition at 1 µM [%] | inhibition at 10 µM [%] | IC50 [nM] | Compound
6 | 75.5 | 76.2 | > 150 | CCn1nc(C)c2c(=O)c(O)c(-c3c(F)cccc3Cl)[nH]c21 [Example 123, 6-(2-Chloro-6-fluorophenyl)-1-ethyl-5-hydroxy-3-methyl-1,7-dihydro-4H-pyrazolo[3,4-b]pyridin-4-one]
7 | 63.4 | 76.3 | > 150 | Cc1cc(F)ccc1-n1nc(C)c2c(=O)c(O)c(-c3ccccc3Cl)[nH]c21 [Example 126, 6-(2-Chlorophenyl)-1-(4-fluoro-2-methylphenyl)-5-hydroxy-3-methyl-1,7-dihydro-4H-pyrazolo[3,4-b]pyridin-4-one]
8 | 87.5 | 89.5 | < 50 | Cc1nn(C2CCCC2)c2[nH]c(-c3c(F)cccc3F)c(O)c(=O)c12 [Example 127, 1-Cyclopentyl-6-(2,6-difluorophenyl)-5-hydroxy-3-methyl-1,7-dihydro-4H-pyrazolo[3,4-b]pyridin-4-one]
9 | 69.6 | 98.5 | > 150 | O=c1c(O)c(-c2ccccc2Cl)[nH]c2c1c(C(F)(F)F)nn2C1CCOCC1 [Example 130, 6-(2-Chlorophenyl)-5-hydroxy-1-(tetrahydro-2H-pyran-4-yl)-3-(trifluoromethyl)-1H-pyrazolo[3,4-b]pyridin-4(7H)-one]
10 | 74.8 | 88.7 | > 150 | Cn1nc(C(F)(F)F)c2c(=O)c(O)c(-c3cc(CNC(=O)C(C)(C)C)ccc3Cl)[nH]c21 [Example 132, N-(4-Chloro-3-(5-hydroxy-1-methyl-4-oxo-3-(trifluoromethyl)-4,7-dihydro-1H-pyrazolo[3,4-b]pyridin-6-yl)benzyl)pivalamide]
11 | 77.3 | 88.8 | > 150 | Cc1nn(C2CC2)c2[nH]c(-c3cc(CNC(=O)C(C)(C)C)ccc3Cl)c(O)c(=O)c12 [Example 133, N-(4-Chloro-3-(1-cyclopropyl-5-hydroxy-3-methyl-4-oxo-4,7-dihydro-1H-pyrazolo[3,4-b]pyridin-6-yl)benzyl)pivalamide]
